Laboratory results reported in US8148391B2 (Cephalon, Inc., priority 2006, dated 2012).
Where two headings read alike, the source gives them in different places. Blank lines part the entries; values can stand above or below the molecule they belong to.

Experiments:
[1] = molecular target: T1, baculovirus-expressed ALK (Homo sapiens, UniProt Q9UM73); test: ALK Kinase Assay (ELISA-type, time-resolved fluorescence); assay type: biochemical
T1 construct: host or cells: baculovirus expression system
Outline: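 Plates coated with phospholipase C-γ substrate (10 μg/mL in TBS); reaction started with 30 ng/ml ALK and run 15 min at 37° C. Phosphorylated substrate detected with Eu-N1-labeled PT66 antibody. IC50 from sigmoidal variable-slope fit of percent inhibition vs log concentration.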

[2] = molecular target: T2, c-Met (cytoplasmic domain) (Homo sapiens, UniProt P08581); test: c-Met Kinase Assay (same methods as for ALK, with modifications); assay type: biochemical
T2 construct: 10 ng/mL c-Met (cytoplasmic domain, Invitrogen Corporation #PV3143); purchased Invitrogen Corporation PV3143
Outline: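 Europium-labeled PT66 antibody (Eu-N1) detects substrate phosphorylation on wells coated with phospholipase C-γ at 10 μg/mL. The kinase, the cytoplasmic domain of c-Met at 10 ng/mL, starts the reaction, which proceeds 15 minutes at 37° C.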

[3] = ALK kinase inhibition, 1 μM ATP (Km level), read-out: ALK Activity
[4] = c-Met kinase inhibition, 1 μM ATP (Km level), read-out: cMet Activity
[5] = ALK kinase inhibition, 1 μM ATP, read-out: ALK Activity
[6] = c-Met kinase inhibition, 1 μM ATP, read-out: cMet Activity
[7] = 1 μM ATP (Km level), read-out: ALK Activity (ALK Kinase Inhibition, IC50)
[8] = 1 μM ATP (Km level), read-out: cMet Activity (c-Met Kinase Inhibition, IC50)
[9] = 1 μM ATP (Km level), 30 ng/ml ALK, 37° C., 15 minutes, read-out: ALK Activity (ALK kinase inhibition, IC50 class)
[10] = 1 μM ATP (Km level), 10 ng/mL c-Met, read-out: cMet Activity (c-Met kinase inhibition, IC50 class)

T2 sequence (P08581 956-1390 limits assumed): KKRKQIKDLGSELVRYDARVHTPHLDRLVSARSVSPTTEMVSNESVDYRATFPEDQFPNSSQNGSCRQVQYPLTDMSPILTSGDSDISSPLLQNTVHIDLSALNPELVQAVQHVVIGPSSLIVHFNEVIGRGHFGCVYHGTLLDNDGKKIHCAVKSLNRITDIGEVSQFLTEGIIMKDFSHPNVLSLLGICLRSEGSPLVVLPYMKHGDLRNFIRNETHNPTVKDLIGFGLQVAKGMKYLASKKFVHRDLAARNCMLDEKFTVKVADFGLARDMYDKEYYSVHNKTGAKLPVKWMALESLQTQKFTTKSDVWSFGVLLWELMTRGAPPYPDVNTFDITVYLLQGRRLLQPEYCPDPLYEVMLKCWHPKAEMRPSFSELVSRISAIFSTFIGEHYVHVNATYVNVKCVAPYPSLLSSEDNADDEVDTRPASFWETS
T1 sequence (Q9UM73 19-1620): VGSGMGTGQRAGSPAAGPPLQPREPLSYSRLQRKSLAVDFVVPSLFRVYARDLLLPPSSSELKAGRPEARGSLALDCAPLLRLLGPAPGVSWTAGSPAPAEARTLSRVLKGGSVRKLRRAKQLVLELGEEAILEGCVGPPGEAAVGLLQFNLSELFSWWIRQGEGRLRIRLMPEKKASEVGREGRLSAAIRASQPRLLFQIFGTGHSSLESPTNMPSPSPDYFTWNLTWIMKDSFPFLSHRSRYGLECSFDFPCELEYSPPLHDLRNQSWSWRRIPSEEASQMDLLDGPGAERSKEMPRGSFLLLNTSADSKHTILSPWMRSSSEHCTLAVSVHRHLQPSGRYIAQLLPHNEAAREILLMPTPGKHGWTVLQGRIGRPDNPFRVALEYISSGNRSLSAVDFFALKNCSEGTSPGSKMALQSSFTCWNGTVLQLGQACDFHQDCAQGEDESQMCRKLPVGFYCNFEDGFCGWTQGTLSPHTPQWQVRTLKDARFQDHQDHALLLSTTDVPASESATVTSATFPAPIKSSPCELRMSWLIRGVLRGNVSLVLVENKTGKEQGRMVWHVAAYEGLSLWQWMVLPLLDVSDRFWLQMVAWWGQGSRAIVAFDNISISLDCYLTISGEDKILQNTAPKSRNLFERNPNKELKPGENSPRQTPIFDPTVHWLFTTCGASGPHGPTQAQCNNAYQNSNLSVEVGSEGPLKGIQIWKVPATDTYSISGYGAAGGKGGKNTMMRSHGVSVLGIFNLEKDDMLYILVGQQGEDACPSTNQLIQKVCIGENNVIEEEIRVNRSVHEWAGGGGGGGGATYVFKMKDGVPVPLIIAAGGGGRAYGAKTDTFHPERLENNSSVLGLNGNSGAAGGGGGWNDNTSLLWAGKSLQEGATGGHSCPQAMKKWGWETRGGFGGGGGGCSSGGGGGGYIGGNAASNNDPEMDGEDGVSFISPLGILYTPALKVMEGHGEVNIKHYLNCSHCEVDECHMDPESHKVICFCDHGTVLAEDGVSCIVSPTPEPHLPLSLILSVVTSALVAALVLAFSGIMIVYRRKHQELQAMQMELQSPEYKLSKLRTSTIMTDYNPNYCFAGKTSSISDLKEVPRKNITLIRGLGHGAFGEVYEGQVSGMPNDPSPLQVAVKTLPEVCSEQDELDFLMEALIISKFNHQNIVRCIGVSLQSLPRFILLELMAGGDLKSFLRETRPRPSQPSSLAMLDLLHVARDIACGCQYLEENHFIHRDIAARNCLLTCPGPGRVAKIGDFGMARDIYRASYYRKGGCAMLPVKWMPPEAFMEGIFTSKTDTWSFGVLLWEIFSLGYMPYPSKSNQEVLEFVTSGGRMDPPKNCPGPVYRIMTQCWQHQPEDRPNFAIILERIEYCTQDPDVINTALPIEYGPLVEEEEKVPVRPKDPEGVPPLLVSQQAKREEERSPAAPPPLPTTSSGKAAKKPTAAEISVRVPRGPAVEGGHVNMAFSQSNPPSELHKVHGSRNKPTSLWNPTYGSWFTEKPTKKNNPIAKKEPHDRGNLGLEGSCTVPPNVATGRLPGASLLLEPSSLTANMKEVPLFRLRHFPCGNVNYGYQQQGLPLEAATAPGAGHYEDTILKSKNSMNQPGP

SMILES: COc1cc2c(cc1Nc1ncc(Cl)c(N[C@@H]3CCCC[C@H]3NS(C)(=O)=O)n1)CCN(CC(F)(F)F)CC2 [Example 248, N-((1R,2R)-2-{5-Chloro-2-[8-methoxy-3-(2,2,2-trifluoro-ethyl)-2,3,4,5-tetrahydro-1H-benzo[d]azepin-7-ylamino]-pyrimidin-4-ylamino}-cyclohexyl)-methanesulfonamide]
IC50 [1, 3]: < 100 nM
IC50 [2, 4]: > 10000 nM

SMILES: COc1cc2c(cc1Nc1ncc(Cl)c(N[C@H]3[C@@H](C(N)=O)[C@@H]4C=C[C@H]3C4)n1)CCN(C[C@H](O)C(F)(F)F)CC2 [Example 1673, (1S,2S,3R,4R)-3-{5-Chloro-2-[8-methoxy-3-((S)-3,3,3-trifluoro-2-hydroxy-propyl)-2,3,4,5-tetrahydro-1H-benzo[d]azepin-7-ylamino]-pyrimidin-4-ylamino}-bicyclo[2.2.1]hept-5-ene-2-carboxylic acid amide]
IC50 [1, 5]: < 100 nM
IC50 [2, 6]: > 10000 nM

SMILES: COc1cc2c(cc1Nc1ncc(Cl)c(Nc3ccc(N(C)C)cc3S(=O)(=O)N(C)C)n1)CCN(CC(=O)N(C)C)CC2 [Example 833, 2-{7-[5-Chloro-4-(4-dimethylamino-2-dimethylsulfamoyl-phenylamino)-pyrimidin-2-ylamino]-8-methoxy-1,2,4,5-tetrahydro-benzo[d]azepin-3-yl}-N,N-dimethyl-acetamide]
IC50 [1, 7]: < 100 nM
IC50 [2, 8]: > 10000 nM

SMILES: COc1cc2c(cc1Nc1ncc(Cl)c(N[C@@H]3CCCC[C@H]3NS(C)(=O)=O)n1)CCN(CC(F)F)CC2 [Example 762, N-((1R,2R)-2-{5-Chloro-2-[3-(2,2-difluoro-ethyl)-8-methoxy-2,3,4,5-tetrahydro-1H-benzo[d]azepin-7-ylamino]-pyrimidin-4-ylamino}-cyclohexyl)-methanesulfonamide]
IC50 [1, 7]: < 100 nM
IC50 [2, 8]: > 10000 nM

SMILES: COc1cc2c(cc1Nc1ncc(Cl)c(N[C@@H]3CCCC[C@H]3NS(C)(=O)=O)n1)CCN(C(CF)CF)CC2 [Example 1392, ((1R,2R)-2-{5-Chloro-2-[3-(2-fluoro-1-fluoromethyl-ethyl)-8-methoxy-2,3,4,5-tetrahydro-1H-benzo[d]azepin-7-ylamino]-pyrimidin-4-ylamino}-cyclohexyl)-methanesulfonamide]
IC50 [1, 9]: < 100 nM
IC50 [2, 10]: > 10000 nM

SMILES: CS(=O)(=O)N[C@@H]1CCCC[C@H]1Nc1nc(Nc2ccc3c(c2)CNCCO3)ncc1Cl [Example 524, N-{(1R,2R)-2[5-Chloro-2-(2,3,4,5-tetrahydro-benzo[f]oxazepin-7-ylamino)-pyrimidin-4-ylamino]-cyclohexyl}-methanesulfonamide]
IC50 [1, 7]: < 100 nM
IC50 [2, 8]: 1000 to 10000 nM

SMILES: CCN1CCc2ccc(Nc3ncc(Cl)c(N[C@@H]4CCCC[C@H]4NC(C)=O)n3)cc2CC1 [Example 445, N-{(1R,2R)-2-[5-Chloro-2-(3-ethyl-2,3,4,5-tetrahydro-1H-benzo[d]azepin-7-ylamino)-pyrimidin-4-ylamino]-cyclohexyl}-acetamide]
IC50 [1, 3]: < 100 nM
IC50 [2, 4]: < 100 nM

SMILES: COc1ccc(Nc2nc(Nc3cc4c(cc3OC)CCN(CC(=O)N(C)C)CC4)ncc2Cl)c(S(=O)(=O)C(C)C)c1 [Example 1162, 2-(7-{5-Chloro-4-[4-methoxy-2-(propane-2-sulfonyl)-phenylamino]-pyrimidin-2-ylamino}-8-methoxy-1,2,4,5-tetrahydro-benzo[d]azepin-3-yl)-N,N-dimethyl-acetamide]
IC50 [1, 9]: < 100 nM
IC50 [2, 10]: > 10000 nM

SMILES: NC(=O)[C@@H]1[C@H](Nc2nc(Nc3ccc4c(c3)CCC(O)CC4)ncc2Cl)[C@H]2C=C[C@@H]1C2 (stereo partly drawn) [Example 1017, (1S,2S,3R,4R)-3-[5-Chloro-2-(7-hydroxy-6,7,8,9-tetrahydro-5H-benzocyclohepten-2-ylamino)-pyrimidin-4-ylamino]-bicyclo[2.2.1]hept-5-ene-2-carboxylic acid amide]
IC50 [1, 9]: < 100 nM
IC50 [2, 10]: 100 to 1000 nM

SMILES: CN1C(=O)CCCc2cc(Nc3ncc(Cl)c(Nc4ccc5[nH]c(C(F)(F)F)nc5c4)n3)ccc21 [Example 1016, 7-[5-Chloro-4-(2-trifluoromethyl-1H-benzoimidazol-5-ylamino)-pyrimidin-2-ylamino]-1-methyl-1,3,4,5-tetrahydro-benzo[b]azepin-2-one]
IC50 [1, 9]: 100 to 1000 nM
IC50 [2, 10]: 1000 to 10000 nM

Other lines, results leading:

IC50 [1, 5]: < 100 nM
IC50 [2, 6]: < 100 nM
SMILES: CNC(=O)c1cccc(F)c1Nc1nc(Nc2ccc3c(c2)NC(=O)CN(S(C)(=O)=O)C3)ncc1Cl [Example 1860, 2-[5-Chloro-2-(4-methanesulfonyl-2-oxo-2,3,4,5-tetrahydro-1H-benzo[e][1,4]diazepin-8-ylamino)pyrimidin-4-ylamino]-3-fluoro-N-methyl-benzamide]

IC50 [1, 7]: < 100 nM
IC50 [2, 8]: > 10000 nM
SMILES: COc1c(Nc2ncc(Cl)c(Nc3ccccc3S(=O)(=O)N3CCCC3)n2)ccc2c1CCCC(NCCO)C2 (stereo not drawn) [Example 964, 2-(2-{5-Chloro-4-[2-(pyrrolidine-1-sulfonyl)-phenylamino]-pyrimidin-2-ylamino}-1-methoxy-6,7,8,9-tetrahydro-5H-benzocyclohepten-6-ylamino)-ethanol]

IC50 [1, 5]: < 100 nM
IC50 [2, 6]: 100 to 1000 nM
SMILES: COc1cc2c(cc1Nc1ncc(Cl)c(Nc3ccccc3S(=O)(=O)N3CC[C@H](O)C3)n1)CCN(CC(C)(C)O)CC2 [Example 1562, (S)-1-(2-{5-Chloro-2-[3-(2-hydroxy-2-methyl-propyl)-8-methoxy-2,3,4,5-tetrahydro-1H-3-benzazepin-7-ylamino]-pyrimidin-4-ylamino}-benzenesulfonyl)-pyrrolidin-3-ol]

IC50 [1, 9]: 100 to 1000 nM
IC50 [2, 10]: < 100 nM
SMILES: COCCN1CCc2ccc(Nc3ncc(Cl)c(Nc4c(F)cccc4C(=O)NCCC#N)n3)cc2CC1 [Example 1043, 2-{5-Chloro-2-[3-(2-methoxy-ethyl)-2,3,4,5-tetrahydro-1H-benzo[d]azepin-7-ylamino]-pyrimidin-4-ylamino}-N-(2-cyano-ethyl)-3-fluoro-benzamide]

IC50 [1, 7]: < 100 nM
IC50 [2, 8]: 1000 to 10000 nM
SMILES: COc1c(Nc2ncc(Cl)c(Nc3ccccc3S(=O)(=O)C(C)C)n2)ccc2c1CCC(N1CCN(C)CC1)CC2 (racemic) [Example 914, 5-Chloro-N*2*-[1-methoxy-7-(4-methyl-piperazin-1-yl)-6,7,8,9-tetrahydro-5H-benzocyclohepten-2-yl]-N*4*-[2-(propane-2-sulfonyl)-phenyl]-pyrimidine-2,4-diamine]

IC50 [1, 3]: < 100 nM
IC50 [2, 4]: < 100 nM
SMILES: CCN1CCN(CC)c2cc(Nc3ncc(Cl)c(Nc4ccccc4C(=O)NC)n3)ccc2C1=O [Example 418, 2-[5-Chloro-2-(1,4-diethyl-5-oxo-2,3,4,5-tetrahydro-1H-benzo[e][1,4]diazepin-8-ylamino)-pyrimidin-4-ylamino]-N-methylbenzamide]

IC50 [1, 3]: < 100 nM
IC50 [2, 4]: < 100 nM
SMILES: CNC(=O)c1ccccc1Nc1nc(Nc2ccc3c(c2)CN(CCOC)CCN3C)ncc1Cl [Example 432, 2-{5-Chloro-2-[4-(2-methoxy-ethyl)-1-methyl-2,3,4,5-tetrahydro-1H-benzo[e][1,4]diazepin-7-ylamino]-pyrimidin-4-ylamino}-N-methyl-benzamide]

IC50 [1, 9]: < 100 nM
IC50 [2, 10]: 1000 to 10000 nM
SMILES: CCNC(=O)c1ccccc1Nc1nc(Nc2cc3c(cc2OC)CCN(CC(=O)NC)CC3)ncc1Cl [Example 1115, 2-[5-Chloro-2-(8-methoxy-3-methylcarbamoylmethyl-2,3,4,5-tetrahydro-1H-benzo[d]azepin-7-ylamino)-pyrimidin-4-ylamino]-N-ethyl-benzamide]
